The record followed here is ChEMBL document CHEMBL5614445, “Asymmetric Dirhodium-Catalyzed Modification of Immunomodulatory Imide Drugs and Their Biological Assessment” (ACS Med Chem Lett, 2024).

Holding throughout (type): cell-based
The target of test [1] is T1, Eukaryotic peptide chain release factor GTP-binding subunit ERF3A (Homo sapiens, UniProt P15170). Briefly: Induction of ePL tagged GSPT1 degradation in human DF15 cells assessed as remaining protein level incubated for 60 mins by luminescence reader assay relative to control.
Test [2] deals with Casein kinase I isoform alpha (Homo sapiens) (UniProt P48729). Briefly: Induction of ePL tagged CK1alpha degradation in human MDS-L cells assessed as remaining protein level incubated for 60 mins by luminescence reader assay relative to control.
The target of test [3] is Zinc finger protein Aiolos (Homo sapiens) (UniProt Q9UKT9). Briefly: Induction of N-terminal HiBiT tag knocked in IKZF3 degradation in human DF15 cells assessed as remaining protein level incubated for 60 mins by Nano-Glo HiBiT lytic reagent based assay relative to control. On the technique in general: With HiBiT, luminescence reflects the tagged protein that the partner subunit can reach.

In test [4] the target is T1, Eukaryotic peptide chain release factor GTP-binding subunit ERF3A. Briefly: Induction of ePL tagged GSPT1 degradation in human DF15 cells incubated for 60 mins by luminescence reader assay. As to conditions: read-out: EC50 (the source's name).

Sequence of Zinc finger protein Aiolos (Homo sapiens) (Q9UKT9 whole entry): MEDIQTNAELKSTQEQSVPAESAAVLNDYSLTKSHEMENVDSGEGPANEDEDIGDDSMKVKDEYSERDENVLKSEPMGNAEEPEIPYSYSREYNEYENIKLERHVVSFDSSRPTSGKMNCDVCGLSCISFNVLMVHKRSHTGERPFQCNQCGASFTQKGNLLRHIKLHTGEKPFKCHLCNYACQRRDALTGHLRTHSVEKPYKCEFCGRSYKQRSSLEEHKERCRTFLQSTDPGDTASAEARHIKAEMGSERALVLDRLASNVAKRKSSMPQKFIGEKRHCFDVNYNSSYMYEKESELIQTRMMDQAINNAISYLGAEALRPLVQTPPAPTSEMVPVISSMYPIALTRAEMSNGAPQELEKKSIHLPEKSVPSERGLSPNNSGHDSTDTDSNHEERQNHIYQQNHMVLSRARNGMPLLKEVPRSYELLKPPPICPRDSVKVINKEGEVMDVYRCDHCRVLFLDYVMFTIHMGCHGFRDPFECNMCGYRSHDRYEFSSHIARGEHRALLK
T1 sequence (P15170 whole entry, canonical isoform): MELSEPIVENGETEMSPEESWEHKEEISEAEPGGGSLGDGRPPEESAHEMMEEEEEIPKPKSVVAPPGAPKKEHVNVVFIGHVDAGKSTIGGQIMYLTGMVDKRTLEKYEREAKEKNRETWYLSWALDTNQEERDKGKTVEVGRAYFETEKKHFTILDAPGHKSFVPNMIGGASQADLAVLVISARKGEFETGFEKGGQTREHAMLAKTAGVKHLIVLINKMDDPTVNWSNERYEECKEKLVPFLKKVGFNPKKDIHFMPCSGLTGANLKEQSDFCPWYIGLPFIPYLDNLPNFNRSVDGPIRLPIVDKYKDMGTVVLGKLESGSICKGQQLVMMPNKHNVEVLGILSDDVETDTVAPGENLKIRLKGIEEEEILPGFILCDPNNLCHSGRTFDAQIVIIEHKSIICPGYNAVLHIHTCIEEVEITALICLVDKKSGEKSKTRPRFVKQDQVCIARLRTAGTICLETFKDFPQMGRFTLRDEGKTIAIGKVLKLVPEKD
Sequence of Casein kinase I isoform alpha (Homo sapiens) (P48729 2-337 limits assumed): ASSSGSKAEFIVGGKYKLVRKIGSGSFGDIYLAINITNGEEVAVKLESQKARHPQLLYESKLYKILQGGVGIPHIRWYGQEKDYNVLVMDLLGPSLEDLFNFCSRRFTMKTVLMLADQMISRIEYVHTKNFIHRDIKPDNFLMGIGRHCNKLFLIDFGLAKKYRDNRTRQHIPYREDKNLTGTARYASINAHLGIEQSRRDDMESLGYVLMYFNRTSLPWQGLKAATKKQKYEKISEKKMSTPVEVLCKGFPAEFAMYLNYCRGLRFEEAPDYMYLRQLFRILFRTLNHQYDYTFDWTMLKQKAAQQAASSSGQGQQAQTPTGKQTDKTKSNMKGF

In the case of `O=C1CCC(N2C(=O)c3ccc(C4=C[C@]4(C(=O)OCC(Cl)(Cl)Cl)c4ccc(Br)cc4)cc3C2=O)C(=O)N1` (some centres undefined), the Activity in test [1] stood at 2.3%.
For the compound `O=C1CCC(N2Cc3cc([C@@H]4C[C@]4(C(=O)OCC(Cl)(Cl)Cl)c4ccc(Br)cc4)ccc3C2=O)C(=O)N1` (some centres undefined), the Activity in test [2] amounted to 92%.
For the compound `O=C1CCC(N2Cc3cc([C@H]4C[C@@]4(C(=O)OCC(Cl)(Cl)Cl)c4ccc(Br)cc4)ccc3C2=O)C(=O)N1` (some centres undefined), in test [2], the Activity stood at 44%.
Consider `O=C1CCC(N2Cc3c(cccc3[C@@H]3C[C@]3(C(=O)OCC(Cl)(Cl)Cl)c3ccc(Br)cc3)C2=O)C(=O)N1` (some centres undefined), for which the Activity in test [3] was 79%.
Still for that read-out and setting: the same measure for `O=C1CCC(N2Cc3c(cccc3C3=C[C@]3(C(=O)OCC(Cl)(Cl)Cl)c3ccc(Br)cc3)C2=O)C(=O)N1` (some centres undefined): 9.2%.
Turning to `O=C1CCC(N2C(=O)c3ccc(C4=C[C@@]4(C(=O)OCC(Cl)(Cl)Cl)c4ccc(Br)cc4)cc3C2=O)C(=O)N1` (some centres undefined), the DC50 in test [4] worked out at 1400 nM. Moreover, in test [1], the Activity came out at 1.4%.
With `O=C1CCC(N2C(=O)c3cccc([C@H]4C[C@@]4(C(=O)OCC(Cl)(Cl)Cl)c4ccc(Br)cc4)c3C2=O)C(=O)N1` (some centres undefined), in test [3], the Activity stood at 99%.
Turning to `O=C1CCC(N2C(=O)c3ccc([C@@H]4C[C@]4(C(=O)OCC(Cl)(Cl)Cl)c4ccc(Br)cc4)cc3C2=O)C(=O)N1` (some centres undefined), the Activity in test [1] turned out to be 100%.
